In patent US5981181A, “DNA sequences with oligosaccharide transporter, plasmids bacteria and plants containing a transporter as well as a process for the preparation and transformation of yeast strains for identification of the transporter” (Hoechst Schering AgrEvo GmbH, priority 1992, dated 1999):

Experiments:
[1] = target: T1, sucrose transporter from spinach (Spinacia oleracea, UniProt Q03411); test: Competition experiment with various sugars as competitor for the labelled sucrose in yeast YEplac112A1NE-S21; type: cell-based; conditions: in relation to YEplac112A1NE-S21 control = 100; for activity at 10000 µM / activity at 2000 µM: read-out: sucrose transport (%); for activity at 2000 µM: 2mM competitor
T1 construct: which contain, as inserts, the cDNA for the sucrose transporter from spinach; expressed in transfected cells; host or cells: Saccharomyces cerevisiae YSH2.64-1A suc- with integrated potato sucrose synthase (susy), transformed with YEplac112A1NE-S21
T1 sequence (Q03411 1-525): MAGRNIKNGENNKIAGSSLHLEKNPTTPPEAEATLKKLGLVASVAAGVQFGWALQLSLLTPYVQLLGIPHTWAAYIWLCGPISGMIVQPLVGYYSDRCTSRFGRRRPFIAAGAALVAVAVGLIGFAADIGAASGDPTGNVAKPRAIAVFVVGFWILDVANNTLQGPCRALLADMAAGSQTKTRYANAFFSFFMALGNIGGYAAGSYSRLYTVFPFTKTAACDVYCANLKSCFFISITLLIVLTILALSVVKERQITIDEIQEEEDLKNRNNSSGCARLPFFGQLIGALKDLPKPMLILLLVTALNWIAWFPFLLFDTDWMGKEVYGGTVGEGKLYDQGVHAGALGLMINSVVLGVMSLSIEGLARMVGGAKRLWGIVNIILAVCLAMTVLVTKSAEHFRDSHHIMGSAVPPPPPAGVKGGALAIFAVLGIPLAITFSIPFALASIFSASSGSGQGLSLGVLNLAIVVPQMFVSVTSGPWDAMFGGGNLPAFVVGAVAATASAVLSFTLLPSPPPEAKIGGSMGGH
Protocol: The yeast transformand YEplac112A1NE-S21, corresponding to that obtained in Example 2, was grown in liquid medium until the culture had reached the logarithmic phase. After centrifuging the culture, the cells were subjected to a pre-incubation for 5 minutes in a glucose containing medium and then taken up in a medium containing ^14 C-labelled sucrose. The uptake of the labelled sucrose was measured by the process described by Cirillo (1989, Meth Enzymol 174: 617-622). The uptake of the labelled sucrose without preincubation with glucose was compared with that with co-incubation with the inhibitors carbonyl cyanide m-chlorophenylhydrazone(CCCP), p-chloromercuribenzenesulfonic acid (PCMBS) and antimycin. The calculated reduction of the sucrose uptake by the inhibitors is shown in table I. A competition experiment with various sugars as competitor for the labelled sucrose, from which the specificity of the transporter can be read off, is shown in table II.

[2] = target: T1, sucrose transporter from spinach; test: cell-based
Protocol: Time pattern of the uptake of sucrose in yeast cells. "pmol/mg cells"=amount of the ^14 C-labelled sucrose in pmol taken up in relation to the moisture weight of the yeast cells per mg; "112"=starting strain (without transporter); "+Glucose"=pre-incubation of the cells in a medium of 10 mM glucose; "-Glucose"=no pre-incubation of the cells; […], carbonyl cyanide m-chlorophenylhydrazone (CCCP) in a concentration of 2.5 μM; […] p-chloromercuribenzenesulfonicacid (PCMBS) in a concentration of 500 μM; […] antimycin in a concentration of 10 μM.
After centrifuging the culture, the cells were subjected to a pre-incubation for 5 minutes in a glucose containing medium and then taken up in a medium containing ^14 C-labelled sucrose. The uptake of the labelled sucrose was measured by the process described by Cirillo (1989, Meth Enzymol 174: 617-622). The uptake of the labelled sucrose without preincubation with glucose was compared with that with co-incubation with the inhibitors carbonyl cyanide m-chlorophenylhydrazone(CCCP), p-chloromercuribenzenesulfonic acid (PCMBS) and antimycin.

[3] = system: sucrose transport through the membrane; conditions: plasma membranes; Slone & Buckhout, 1991; cited from earlier work
[4] = read-out: sucrose transport (%)

OC[C@H]1O[C@H](O[C@H]2O[C@H](CO)[C@@H](O)[C@H](O)[C@H]2O)[C@H](O)[C@@H](O)[C@@H]1O [trehalose]
activity at 10000 µM ([1]; 10mM competitor): 103%

O=C(CCc1ccc(O)cc1)c1c(O)cc(O)cc1O[C@@H]1O[C@H](CO)[C@@H](O)[C@H](O)[C@H]1O [phloridzin]
activity at 2000 µM [1]: 16%

O=S(=O)(O)c1cc[c]([Hg][Cl])cc1 [PCMBS, p-chloromercuribenzenesulfonic acid]
sucrose transport (%) ([2]; 25μM inhibitor, in relation to YEplac112A1NE-S21 control = 100): 73% | sucrose transport (%) ([2]; 100μM inhibitor, in relation to YEplac112A1NE-S21 control = 100): 21%

OC[C@H]1O[C@@](CO)(O[C@H]2O[C@H](CO)[C@@H](O)[C@H](O)[C@H]2O)[C@@H](O)[C@@H]1O [sucrose]
Km [3]: ~1000 µM | activity at 2000 µM [1]: 28%

OC[C@H]1OC(Oc2ccccc2)[C@H](O)[C@@H](O)[C@@H]1O (some centres unmarked) [phenylglucoside]
activity at 2000 µM [1]: 7%

OC[C@H]1O[C@H](OC[C@H]2OC(O)(CO)[C@@H](O)[C@@H]2O)[C@H](O)[C@@H](O)[C@@H]1O (some centres unmarked) [palatinose]
sucrose transport (%) ([1]; 10mM competitor): 102%

O=[As]([O-])([O-])O.[Na+].[Na+] [sodium arsenate]
sucrose transport (%) ([2]; 1mM inhibitor, in relation to YEplac112A1NE-S21 control = 100): 34%

N#CC(C#N)=NNc1cccc(Cl)c1 [CCCP, carbonyl cyanide m-chlorophenylhydrazone]
activity at 0.5 µM ([2]; 0.5μM inhibitor, in relation to YEplac112A1NE-S21 control = 100, read-out: sucrose transport (%)): 65% | activity at 2.5 µM ([2]; 2.5μM inhibitor, in relation to YEplac112A1NE-S21 control = 100, read-out: sucrose transport (%)): 21%

O=[N+]([O-])c1ccc(O)c([N+](=O)[O-])c1 [2,4-DNP, 2,4dinitrophenol]
activity at 25 µM [2, 4]: 61% | activity at 100 µM [2, 4]: 9%

OC[C@H]1O[C@H](O[C@H]2[C@H](O)[C@@H](O)[C@H](O)O[C@@H]2CO)[C@H](O)[C@@H](O)[C@@H]1O [maltose]
activity at 2000 µM [1]: 58% | activity at 10000 µM ([1]; 10mM competitor): 37%

OC[C@H]1O[C@@H](O[C@H]2[C@H](O)[C@@H](O)C(O)O[C@@H]2CO)[C@H](O)[C@@H](O)[C@H]1O (some centres unmarked) [lactose]
activity at 2000 µM [1]: 91%

antimycin A
sucrose transport (%) ([2]; 10μM inhibitor, in relation to YEplac112A1NE-S21 control = 100): 59%
